# Source: ChEMBL document CHEMBL1201862, “PubChem BioAssay data set” (2004)
#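 Test compounds were applied to cells in 96-well plates for 48 hours at 5 doses. Abbreviation: GI50, concentration required for 50% inhibition of growth.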 Calls of active or inactive are those of the source. Cut-off read from the data, not from the text of the source: active = GI50 up to about 1.1 µM and inactive = higher.
# Assays:
# Experiment in all cases: inhibition of tumour cell growth, NCI panel, 48 h
# DU-145 = test system: DU-145
# NCI-H522 = test system: NCI-H522
# HL-60 = test system: HL-60
# MDA-MB-435 = test system: MDA-MB-435
# HOP-92 = test system: HOP-92
# SK-MEL-5 = test system: SK-MEL-5
# SK-MEL-2 = test system: SK-MEL-2
# SK-MEL-28 = test system: SK-MEL-28
# ACHN = test system: ACHN
# MDA-N = test system: MDA-N
# COLO 205 = test system: COLO 205
# NCI-H23 = test system: NCI-H23
# SF-295 = test system: SF-295
# SR = test system: SR
# MDA-MB-231 = test system: MDA-MB-231
# OVCAR-8 = test system: OVCAR-8
# HCT-116 = test system: HCT-116
# PC-3 = test system: PC-3
# IGROV-1 = test system: IGROV-1
# 786-0 = test system: 786-0
# A549 = test system: A549
# SNB-19 = test system: SNB-19
# SK-OV-3 = test system: SK-OV-3
# HT-29 = test system: HT-29
# SN12C = test system: SN12C
# HCT-15 = test system: HCT-15
# NCI-H460 = test system: NCI-H460
# MOLT-4 = test system: MOLT-4
# TK-10 = test system: TK-10
# KM12 = test system: KM12
# RPMI-8226 = test system: RPMI-8226
# A498 = test system: A498
# M14 = test system: M14
# OVCAR-5 = test system: OVCAR-5
# UO-31 = test system: UO-31
# T47D = test system: T47D
# SW-620 = test system: SW-620
# EKVX = test system: EKVX
# SF-539 = test system: SF-539
# CCRF-CEM = test system: CCRF-CEM
# SF-268 = test system: SF-268
# NCI-H226 = test system: NCI-H226
# U-251 = test system: U-251
# UACC-257 = test system: UACC-257
# NCI/ADR-RES = test system: NCI/ADR-RES
# Malme-3M = test system: Malme-3M
# BT-549 = test system: BT-549
# OVCAR-4 = test system: OVCAR-4
# CAKI-1 = test system: CAKI-1
# UACC-62 = test system: UACC-62
# K562 = test system: K562
# Hs-578T = test system: Hs-578T
# HOP-62 = test system: HOP-62
# MCF7 = test system: MCF7
# RXF 393 = test system: RXF 393
# SNB-75 = test system: SNB-75
# OVCAR-3 = test system: OVCAR-3
# LOX IMVI = test system: LOX IMVI
# HCC 2998 = test system: HCC 2998
smiles,measurement,setting,value
O=C(O)c1cnc(-n2[nH]c3c(c2=O)CCCC3)[nH]c1=O,GI50,DU-145,> 100 µM (inactive)
same,GI50,NCI-H522,> 100 µM (inactive)
same,GI50,HL-60,> 100 µM (inactive)
same,GI50,MDA-MB-435,> 100 µM (inactive)
same,GI50,HOP-92,83.9 µM (inactive)
same,GI50,SK-MEL-5,> 100 µM (inactive)
same,GI50,SK-MEL-2,> 100 µM (inactive)
same,GI50,SK-MEL-28,> 100 µM (inactive)
same,GI50,ACHN,> 100 µM (inactive)
same,GI50,MDA-N,> 100 µM (inactive)
same,GI50,COLO 205,> 100 µM (inactive)
same,GI50,NCI-H23,> 100 µM (inactive)
same,GI50,SF-295,> 100 µM (inactive)
same,GI50,SR,> 100 µM (inactive)
same,GI50,MDA-MB-231,> 100 µM (inactive)
same,GI50,OVCAR-8,> 100 µM (inactive)
same,GI50,HCT-116,> 100 µM (inactive)
same,GI50,PC-3,> 100 µM (inactive)
same,GI50,IGROV-1,> 100 µM (inactive)
same,GI50,786-0,> 100 µM (inactive)
same,GI50,A549,> 100 µM (inactive)
same,GI50,SNB-19,> 100 µM (inactive)
same,GI50,SK-OV-3,> 100 µM (inactive)
same,GI50,HT-29,> 100 µM (inactive)
same,GI50,SN12C,> 100 µM (inactive)
same,GI50,HCT-15,> 100 µM
same,GI50,NCI-H460,> 100 µM (inactive)
same,GI50,MOLT-4,> 100 µM (inactive)
same,GI50,TK-10,> 100 µM (inactive)
same,GI50,KM12,> 100 µM (inactive)
same,GI50,RPMI-8226,> 100 µM (inactive)
same,GI50,A498,> 100 µM (inactive)
same,GI50,M14,> 100 µM (inactive)
same,GI50,OVCAR-5,> 100 µM (inactive)
same,GI50,UO-31,> 100 µM (inactive)
same,GI50,T47D,> 100 µM (inactive)
same,GI50,SW-620,> 100 µM (inactive)
same,GI50,EKVX,> 100 µM (inactive)
same,GI50,SF-539,> 100 µM (inactive)
same,GI50,CCRF-CEM,> 100 µM (inactive)
same,GI50,SF-268,> 100 µM (inactive)
same,GI50,NCI-H226,> 100 µM (inactive)
same,GI50,U-251,> 100 µM (inactive)
same,GI50,UACC-257,> 100 µM (inactive)
same,GI50,NCI/ADR-RES,> 100 µM (inactive)
same,GI50,Malme-3M,> 100 µM (inactive)
same,GI50,BT-549,> 100 µM (inactive)
same,GI50,OVCAR-4,> 100 µM (inactive)
same,GI50,CAKI-1,> 100 µM (inactive)
same,GI50,UACC-62,> 100 µM (inactive)
same,GI50,K562,> 100 µM (inactive)
same,GI50,Hs-578T,> 100 µM (inactive)
CCOC(OCC)[C@@H]1C[C@@H]2N(O[C@H](OC3CCCC3(c3ccccc3)c3ccccc3)[C@H](OC(C)=O)[C@@]2(CC)Cc2ccc(OC)c(OC)c2)O1 (some centres not stated),GI50,DU-145,> 100 µM (inactive)
same,GI50,NCI-H522,> 100 µM (inactive)
same,GI50,HOP-62,> 100 µM (inactive)
same,GI50,MDA-MB-435,> 100 µM (inactive)
same,GI50,SK-MEL-5,> 100 µM (inactive)
same,GI50,SK-MEL-2,> 100 µM (inactive)
same,GI50,SK-MEL-28,> 100 µM (inactive)
same,GI50,ACHN,> 100 µM (inactive)
same,GI50,MDA-N,> 100 µM (inactive)
same,GI50,MCF7,> 100 µM (inactive)
same,GI50,COLO 205,> 100 µM (inactive)
same,GI50,NCI-H23,> 100 µM (inactive)
same,GI50,RXF 393,> 100 µM (inactive)
same,GI50,SF-295,> 100 µM (inactive)
same,GI50,SR,84.7 µM (inactive)
same,GI50,MDA-MB-231,> 100 µM (inactive)
same,GI50,SNB-75,> 100 µM (inactive)
same,GI50,HCT-116,> 100 µM (inactive)
same,GI50,PC-3,> 100 µM (inactive)
same,GI50,IGROV-1,> 100 µM (inactive)
same,GI50,786-0,> 100 µM (inactive)
same,GI50,A549,> 100 µM (inactive)
same,GI50,SNB-19,> 100 µM (inactive)
same,GI50,SK-OV-3,> 100 µM (inactive)
same,GI50,HT-29,> 100 µM (inactive)
same,GI50,SN12C,> 100 µM (inactive)
same,GI50,HCT-15,> 100 µM
same,GI50,NCI-H460,> 100 µM (inactive)
same,GI50,OVCAR-3,> 100 µM (inactive)
same,GI50,LOX IMVI,> 100 µM (inactive)
same,GI50,MOLT-4,> 100 µM (inactive)
same,GI50,TK-10,> 100 µM (inactive)
same,GI50,KM12,> 100 µM (inactive)
same,GI50,M14,> 100 µM (inactive)
same,GI50,OVCAR-5,> 100 µM (inactive)
same,GI50,UO-31,> 100 µM (inactive)
same,GI50,HCC 2998,> 100 µM (inactive)
same,GI50,T47D,> 100 µM (inactive)
same,GI50,SW-620,> 100 µM (inactive)
same,GI50,EKVX,> 100 µM (inactive)
same,GI50,SF-539,> 100 µM (inactive)
same,GI50,CCRF-CEM,> 100 µM (inactive)
same,GI50,SF-268,> 100 µM (inactive)
same,GI50,NCI-H226,> 100 µM (inactive)
same,GI50,U-251,> 100 µM (inactive)
same,GI50,UACC-257,> 100 µM (inactive)
same,GI50,NCI/ADR-RES,> 100 µM (inactive)
same,GI50,BT-549,> 100 µM (inactive)
same,GI50,OVCAR-4,> 100 µM (inactive)
same,GI50,CAKI-1,> 100 µM (inactive)
same,GI50,UACC-62,> 100 µM (inactive)
same,GI50,K562,> 100 µM (inactive)
Cc1cccc(N2CCN(S(=O)(=O)c3ccc(Cl)cc3)C2=N)c1C,GI50,DU-145,93.3 µM (inactive)
same,GI50,MDA-MB-435,> 100 µM (inactive)
same,GI50,SK-MEL-5,> 100 µM (inactive)
same,GI50,SK-MEL-28,38.6 µM (inactive)
same,GI50,ACHN,> 100 µM (inactive)
same,GI50,MDA-N,> 100 µM (inactive)
same,GI50,MCF7,> 100 µM (inactive)
same,GI50,COLO 205,> 100 µM (inactive)
same,GI50,NCI-H23,96.4 µM (inactive)
same,GI50,RXF 393,> 100 µM (inactive)
same,GI50,SF-295,77.4 µM (inactive)
same,GI50,SR,18.1 µM (inactive)
same,GI50,MDA-MB-231,> 100 µM (inactive)
same,GI50,OVCAR-8,93.8 µM (inactive)
same,GI50,SNB-75,> 100 µM (inactive)
same,GI50,HCT-116,> 100 µM (inactive)
same,GI50,IGROV-1,25.1 µM (inactive)
same,GI50,786-0,> 100 µM (inactive)
same,GI50,A549,> 100 µM (inactive)
same,GI50,SNB-19,> 100 µM (inactive)
same,GI50,SK-OV-3,> 100 µM (inactive)
same,GI50,HT-29,> 100 µM (inactive)
same,GI50,SN12C,> 100 µM (inactive)
same,GI50,MOLT-4,35 µM (inactive)
same,GI50,TK-10,> 100 µM (inactive)
same,GI50,KM12,> 100 µM (inactive)
same,GI50,RPMI-8226,> 100 µM (inactive)
same,GI50,A498,> 100 µM (inactive)
same,GI50,M14,> 100 µM (inactive)
same,GI50,OVCAR-5,> 100 µM (inactive)
same,GI50,UO-31,47.9 µM (inactive)
same,GI50,T47D,> 100 µM (inactive)
same,GI50,SW-620,> 100 µM (inactive)
same,GI50,SF-539,> 100 µM (inactive)
same,GI50,SF-268,> 100 µM (inactive)
same,GI50,NCI-H226,> 100 µM (inactive)
same,GI50,U-251,> 100 µM (inactive)
same,GI50,UACC-257,> 100 µM (inactive)
same,GI50,NCI/ADR-RES,> 100 µM (inactive)
same,GI50,BT-549,> 100 µM (inactive)
same,GI50,CAKI-1,> 100 µM (inactive)
same,GI50,UACC-62,38.4 µM (inactive)
same,GI50,K562,33.1 µM (inactive)
